Bounds are passed on as bounds.

This assay concerns the target LC3B (Homo sapiens, UniProt Q9GZQ8). Briefly: Fluorescence Polarization (FP) Assay: displacement of FITC-labeled peptide from GST-LC3B. The class given is binding. The conditions noted are these: Fluorescence Polarization assay; GST-LC3B 180 nM, FITC-labeled peptide 18 nM, 25° C.; read-out: IC50. Here is the method:
The compounds of the present invention for regulating the autophagy-related protein LC3B were tested by Fluorescence Polarization (FP) Assay.
Fluorescence Polarization (FP) Assay Test
(Polarisation of emitted light reports the rotation of a fluorescent probe.)
What is called IC50 is the midpoint of a concentration-inhibition curve. Turning to `O=C1NC(=O)/C(=C\NCCN2CCN(CCO)CC2)S1` [Compound 200, 5-(((2-(4-(2-hydroxyethyl)piperazin-1-yl)ethyl)amino)methylene)thiazolidine-2,4-dione], the half-maximal inhibitory concentration (IC50) was in the range of 100 to 1000 µM.
For the compound `CN(C)C=C1C(=O)C(C)(c2ccccc2)C1=O` (centres unmarked) [Compound 201, 4-((dimethylamino)methylene)-2-methyl-2-phenylcyclobutane-1,3-dione], the half-inhibitory concentration (IC50) fell in the range of 100 to 1000 µM.
For `CN(C)CCCNC=C1C(=O)CC(c2ccccc2)CC1=O` (centres unmarked) [Compound 202, 2-(((3-(dimethylamino)propyl)amino)methylene)-5-phenylcyclohexane-1,3-dione], the IC50 is 15 to 100 µM.
For the compound `Cc1cccc(CNC=C2C(=O)CC(c3ccccc3)CC2=O)n1` (centres unmarked) [Compound 203, 2-((((6-methylpyridin-2-yl)methyl)amino)methylene)-5-phenylcyclohexane-1,3-dione], the IC50 is 3 to 15 µM.
As for `O=C1CC(c2ccccc2)CC(=O)C1=CNCc1ccc(Cl)cn1` (centres unmarked) [Compound 204, 2-((((5-chloropyridin-2-yl)methyl)amino)methylene)-5-phenylcyclohexane-1,3-dione], the figure is 100 to 1000 µM; as for `O=C1CC(c2ccccc2)CC(=O)C1=CNCc1cc2ccccc2[nH]1` (centres unmarked) [Compound 205, 2-((((1H-indol-2-yl)methyl)amino)methylene)-5-phenylcyclohexane-1,3-dione], 100 to 1000 µM.
`CSCCNC=C1C(=O)CC(c2ccccc2)CC1=O` (centres unmarked) [Compound 206, 2-(((2-(methylthio)ethyl)amino)methylene)-5-phenylcyclohexane-1,3-dione]: the half-inhibitory concentration (IC50) lay in the range of 15 to 100 µM.
The same measure for `C[S+]([O-])CCNC=C1C(=O)CC(c2ccccc2)CC1=O` (centres unmarked) [Compound 207, 2-(((2-(methylsulfinyl)ethyl)amino)methylene)-5-phenylcyclohexane-1,3-dione]: 15 to 100 µM; for `CS(=O)(=O)CCNC=C1C(=O)CC(c2ccccc2)CC1=O` (centres unmarked) [Compound 208, 2-(((2-(methylsulfonyl)ethyl)amino)methylene)-5-phenylcyclohexane-1,3-dione]: 15 to 100 µM.
As for `CN(C)CCNC=C1C(=O)CC(c2ccccc2)C(F)C1=O` (centres unmarked) [Compound 209, 2-(((2-(dimethylamino)ethyl)amino)methylene)-4-fluoro-5-phenylcyclohexane-1,3-dione], the IC50 is less than 3 µM.
In the case of `O=C(O)CNC(=O)CNC=C1C(=O)CC(c2ccccc2)CC1=O` (centres unmarked) [Compound 210, ((2,6-dioxo-4-phenylcyclo-hexylidene)methyl) glycylglycine], the IC50 was 15 to 100 µM.
Turning to `CC(C)C(=O)N1CCN(CCNC=C2C(=O)CC(c3ccccc3)CC2=O)CC1` (centres unmarked) [Compound 211, 2-(((2-(4-isobutyrylpiperazin-1-yl)ethyl)amino)methylene)-5-phenylcyclohexane-1,3-dione], the IC50 is less than 3 µM.
In the case of `CC(C)(C)C(=O)N1CCN(CCNC=C2C(=O)CC(c3ccccc3)CC2=O)CC1` (centres unmarked) [Compound 212, 5-phenyl-2-(((2-(4-pivaloylpiperazin-1-yl)ethyl)amino)methylene) cyclohexane-1,3-dione], the half-inhibitory concentration (IC50) is less than 3 µM.
The same measure for `CC(C)CC(=O)N1CCN(CCNC=C2C(=O)CC(c3ccccc3)CC2=O)CC1` (centres unmarked) [Compound 213, 2-(((2-(4-(3-methylbutanoyl)piperazin-1-yl)ethyl)amino)methylene)-5-phenylcyclohexane-1,3-dione]: less than 3 µM; for `CN(C)C(=O)N1CCN(CCNC=C2C(=O)CC(c3ccccc3)CC2=O)CC1` (centres unmarked) [Compound 214, 4-(2-(((2,6-dioxo-4-phenylcyclo-hexylidene)methyl)amino)ethyl)-N,N-dimethylpiperazine-1-carboxamide]: less than 3 µM.
`CCC(=O)N1CCN(CCNC=C2C(=O)CC(c3ccccc3)CC2=O)CC1` (centres unmarked) [Compound 215, 5-phenyl-2-(((2-(4-propionylpiperazin-1-yl)ethyl)amino)methylene) cyclohexane-1,3-dione]: the IC50 is less than 3 µM.
For the compound `O=C1CC(c2ccccc2)CC(=O)C1=CNCCN1CCN(C(=O)c2ccccc2)CC1` (centres unmarked) [Compound 216, 2-(((2-(4-benzoylpiperazin-1-yl)ethyl)amino)methylene)-5-phenylcyclohexane-1,3-dione], the IC50 is less than 3 µM.
Take `O=C1CC(c2ccccc2)CC(=O)C1=CNCCN1CCN(C(=O)c2ccc([N+](=O)[O-])cc2)CC1` (centres unmarked) [Compound 217, 2-(((2-(4-(4-nitrobenzoyl)piperazin-1-yl)ethyl)amino)methylene)-5-phenylcyclohexane-1,3-dione]: the 50% inhibitory concentration (IC50) fell in the range of 3 to 15 µM.
Consider `CS(=O)(=O)N1CCN(CCNC=C2C(=O)CC(c3ccccc3)CC2=O)CC1` (centres unmarked) [Compound 218, 2-(((2-(4-(methylsulfonyl)piperazin-1-yl)ethyl)amino)methylene)-5-phenylcyclohexane-1,3-dione], for which the IC50 is less than 3 µM.
As for `O=C1CC(c2ccccc2)CC(=O)C1=CNCCN1CCN(C(=O)c2ccc(Cl)cc2)CC1` (centres unmarked) [Compound 219, 2-(((2-(4-(4-chlorobenzoyl)piperazin-1-yl)ethyl)amino)methylene)-5-phenylcyclohexane-1,3-dione], the figure is less than 3 µM.
Consider `O=C1CC(c2ccccc2)CC(=O)C1=CNCCN1CCN(C(=O)c2ccc(Br)cc2)CC1` (centres unmarked) [Compound 220, 2-(((2-(4-(4-bromobenzoyl)piperazin-1-yl)ethyl)amino)methylene)-5-phenylcyclohexane-1,3-dione], for which the IC50 lay within 3 to 15 µM.
As for `O=C1CC(c2ccccc2)CC(=O)C1=CNCCN1CCN(C(=O)Cc2ccccc2)CC1` (centres unmarked) [Compound 221, 5-phenyl-2-(((2-(4-(2-phenylacetyl)piperazin-1-yl)ethyl)amino)methylene) cyclohexane-1,3-dione], the figure is less than 3 µM; as for `O=C1CC(c2ccccc2)CC(=O)C1=CNCCN1CCN(C(=O)c2cccnc2)CC1` (centres unmarked) [Compound 222, 2-(((2-(4-nicotinoylpiperazin-1-yl)ethyl)amino)methylene)-5-phenylcyclohexane-1,3-dione], less than 3 µM.
As for `Cc1ccc(NC(=O)N2CCN(CCNC=C3C(=O)CC(c4ccc(C)cc4)CC3=O)CC2)cc1` (centres unmarked) [Compound 224, 4-(2-(((2,6-dioxo-4-(p-tolyl)cyclohexylidene)methyl)amino)ethyl)-N-(p-tolyl)piperazine-1-carboxamide], the figure is less than 3 µM; as for `CC(=O)N1CCN(CCNC=C2C(=O)CC(c3ccc(C)cc3)CC2=O)CC1` (centres unmarked) [Compound 225, 2-(((2-(4-acetylpiperazin-1-yl)ethyl)amino)methylene)-5-(p-tolyl) cyclohexane-1,3-dione], less than 3 µM.
In the case of `Cc1ccc(C2CC(=O)C(=CNCCN3CCN(C(=O)N4CCOCC4)CC3)C(=O)C2)cc1` (centres unmarked) [Compound 226, 2-(((2-(4-(morpholine-4-carbonyl)piperazin-1-yl)ethyl)amino)methylene)-5-(p-tolyl) cyclohexane-1,3-dione], the concentration for half-maximal inhibition (IC50) was less than 3 µM.
The same measure for `Cc1ccc(C2CC(=O)C(=CNCCN3CCN(S(=O)(=O)c4ccc(C)cc4)CC3)C(=O)C2)cc1` (centres unmarked) [Compound 227, 5-(p-tolyl)-2-(((2-(4-tosylpiperazin-1-yl)ethyl)amino)methylene) cyclohexane-1,3-dione]: 100 to 1000 µM.
With `CCCNC(=O)N1CCN(CCNC=C2C(=O)CC(c3ccc(C)cc3)CC2=O)CC1` (centres unmarked) [Compound 228, 4-(2-(((2,6-dioxo-4-(p-tolyl)cyclohexylidene)methyl)amino)ethyl)-N-propylpiperazine-1-carboxamide], the IC50 is less than 3 µM.
`Cc1ccc(C2CC(=O)C(=CNCCN3CCN(CCO)CC3)C(=O)C2)cc1` (centres unmarked) [Compound 229, 2-(((2-(4-(2-hydroxyethyl)piperazin-1-yl)ethyl)amino)methylene)-5-(p-tolyl) cyclohexane-1,3-dione]: the IC50 is less than 3 µM.
`Cc1ccc(C2CC(=O)C(=CNCCN3CCN(CCCO)CC3)C(=O)C2)cc1` (centres unmarked) [Compound 230, 2-(((2-(4-(3-hydroxypropyl)piperazin-1-yl)ethyl)amino)methylene)-5-(p-tolyl) cyclohexane-1,3-dione]: the IC50 is less than 3 µM.
As for `Cc1ccc(C2CC(=O)C(=CNCCN3CCN(C(=S)Nc4ccccc4)CC3)C(=O)C2)cc1` (centres unmarked) [Compound 231, 4-(2-(((2,6-dioxo-4-(p-tolyl)cyclohexylidene)methyl)amino)ethyl)-N-phenylpiperazine-1-carbothioamide], the figure is less than 3 µM; as for `C=CC(=O)N1CCN(CCNC=C2C(=O)CC(c3ccc(C)cc3)CC2=O)CC1` (centres unmarked) [Compound 232, 2-(((2-(4-acryloylpiperazin-1-yl)ethyl)amino)methylene)-5-(p-tolyl) cyclohexane-1,3-dione], less than 3 µM.
The same measure for `C=C(C)C(=O)N1CCN(CCNC=C2C(=O)CC(c3ccc(C)cc3)CC2=O)CC1` (centres unmarked) [Compound 233, 2-(((2-(4-methacryloyl-piperazin-1-yl)ethyl)amino)methylene)-5-(p-tolyl) cyclohexane-1,3-dione]: less than 3 µM; for `O=C1CC(c2ccccc2)CC(=O)C1=CNCCN1CCNCC1` (centres unmarked) [Compound 236, 5-phenyl-2-(((2-(piperazin-1-yl)ethyl)amino)methylene) cyclohexane-1,3-dione]: 3 to 15 µM; for `Cc1ccc(C2CC(=O)C(=CNCCN3CCNCC3)C(=O)C2)cc1` (centres unmarked) [Compound 237, 2-(((2-(piperazin-1-yl)ethyl)amino)methylene)-5-(p-tolyl) cyclohexane-1,3-dione]: 3 to 15 µM.
`CCN1CCN(CCNC=C2C(=O)CC(c3ccc(C)cc3)CC2=O)CC1` (centres unmarked) [Compound 238, 2-(((2-(4-ethylpiperazin-1-yl)ethyl)amino)methylene)-5-(p-tolyl) cyclohexane-1,3-dione]: the 50% inhibitory concentration (IC50) is less than 3 µM.
As for `Cc1ccc(C2CC(=O)C(=CNCCN3CCN(C(=O)N(C)C)CC3)C(=O)C2)cc1` (centres unmarked) [Compound 240, 4-(2-(((2,6-dioxo-4-(p-tolyl)cyclohexylidene)methyl)amino)ethyl)-N,N-dimethyl-piperazine-1-carboxamide], the figure is less than 3 µM.
The same measure for `COc1ccc(C2CC(=O)C(=CN(C)C)C(=O)C2)cc1` (centres unmarked) [Compound 241, 2-((dimethylamino)methylene)-5-(4-methoxyphenyl) cyclohexane-1,3-dione]: less than 3 µM.

These data come from US11319303B2 (WIGEN BIOMEDICINE TECHNOLOGY (SHANGHAI) CO., LTD., priority 2017, dated 2022).
